Test results as given in paper PMC6892255, “Identification of a potent small-molecule inhibitor of bacterial DNA repair that potentiates quinolone antibiotic activity in methicillin-resistant Staphylococcus aureus^” (Bioorganic & Medicinal Chemistry, 2019).

Legend:
S. aureus SH1000 = test: MIC / growth inhibition assay (end-point OD600), single agent; assay type: cell-based; conditions: Staphylococcus aureus, SH1000, 18 h, end-point OD600 after 18 h, read-out: EC50 S. aureus (SH1000) Compound only
Description: (§1) Minimum inhibitory concentration (MIC) assays were used to evaluate the antimicrobial activity of compounds against Gram-negative (E. coli) and Gram-positive (S. aureus) bacteria. […] Gram-positive bacteria are more susceptible to small-molecule penetration, and compounds were therefore assessed for growth inhibition against the S. aureus SH1000 strain.
(§2) 2.1. Biological and biochemical methods
(§3) Bacterial strains and culture conditions
(§4) Strains utilized in the present study are detailed in Table S1. All strains used were cultivated on Mueller Hinton Agar (MHA) and grown to stationary-phase in Mueller Hinton Broth (MHB) at 37 °C for 16 h, with shaking at 180 r.p.m.
(§5) Minimum inhibitory concentration (MIC) assays
(§6) MIC assays were performed in 96 well plates and MICs were determined in accordance with the broth microdilution protocol.4 Strains grown to stationary-phase in MHB were adjusted to 5 x 10^5 colony-forming units (CFU)/mL in fresh MHB (100 µL/well) supplemented with DMSO to ensure a constant concentration of 0.5% (v/v) DMSO across all experiments. Where […]
(§7) or H2O2 (200 μM). Test compounds were prepared as two-fold serial dilutions. Cells were […]
(§8) as the lowest concentration with no visible bacterial growth, and the optical density at 600 nm (OD600) was recorded. OD600 measurements were background corrected against no-inocula control and normalized to DMSO control for dose-response analysis. The EC50 value mean and SEM were calculated from individual EC50 values from three biological replicates. […]

MRSA (USA300 JE2) [1] = test: Growth inhibition in the presence of mitomycin-C; assay type: cell-based, Staphylococcus aureus; conditions: read-out: EC50 Compound + MMC (0.40 µM); MRSA USA300 JE2, mitomycin-C 0.40 µM
Experimental: (§9) The analogue panel was further tested for potentiation of alternative DNA-damaging agents Mitomycin-C (MMC) and hydrogen peroxide (Table S2), which function via alkylation and oxidization DNA bases, respectively.
as §2, §3, §4, §5, §6, §7, §8

MRSA (USA300 JE2) [2] = test: Growth inhibition in the presence of H2O2; assay type: cell-based, Staphylococcus aureus; conditions: read-out: EC50 Compound + H2O2 (200 µM); MRSA USA300 JE2, H2O2 200 µM
Experimental: as §9, §2, §3, §4, §5, §6, §7, §8

[3] = test system: methicillin-resistant S. aureus (MRSA, USA300 JE2); test: MIC / growth inhibition assay (end-point OD600), single agent; assay type: cell-based, Staphylococcus aureus; conditions: for fold less potent against JE2 compared to SH1000: ratio of single-agent EC50 values
Description: as §1
Methicillin-resistant S. aureus (MRSA) is a multi-drug resistant bacterium responsible for a large number of nosocomial infections.[34] The emergence of community associated (CA)-MRSA capable of infection of healthy individuals highlights its significance and clinical relevance.[35]
as §2, §3, §4, §5, §6, §7, §8

E. coli K-12 BW25113 = test: as above; assay type: cell-based, Escherichia coli; conditions: for EC50: Escherichia coli, BW25113, end-point OD600 after 18 h, read-out: EC50 E. coli (K12 BW25113) Compound only
Description: as §1, §2, §3, §4, §5, §6, §7, §8

[4] = test system: methicillin-resistant S. aureus (MRSA, USA300 JE2); test: Ciprofloxacin (CFX) potentiation in MRSA growth inhibition assay; assay type: cell-based, Staphylococcus aureus; conditions: for EC50: read-out: EC50 S. aureus (USA300 JE2) Compound + CFX (9.4 μM), in presence of half-MIC CFX (9.4 μM); for fold increase in potency of para- over meta-substituted analogue, potentiation by CFX: JE2 + CFX, 4 vs 1, 10 vs 7, 14 vs 13
Experimental: as §2, §3, §4, §5, §6, §7, §8

E. coli topoisomerase IV = biological target: T1, E. coli topoisomerase IV (Escherichia coli, UniProt P0AFI2+P20083); test: Topoisomerase IV supercoiling relaxation assay (pQE80L); assay type: biochemical; conditions: at 12.5 µM (compounds)
T1 construct: purchased Inspiralis
Experimental: 2.1. Biological and biochemical methods […]
E. coli DNA gyrase supercoiling assay (Inspiralis) was performed according to the manufacturer’s instructions, ensuring a constant concentration of 1% (v/v) DMSO. Samples were separated on a 1% (w/v) agarose gel prepared with Tris/Borate/EDTA (TBE) buffer (1 M Tris-borate, 20 mM EDTA, pH 8.0). Electrophoresis was performed at 100 V until the bromophenol blue dye had run >6 cm to ensure resolution of relaxed and supercoiled DNA.
The gel was stained with SYBR Safe DNA gel stain (Invitrogen, 1:10,000 dilution in TBE) for 30 min, and visualized on a Syngene Gel Doc system. Band intensity was quantified using ImageJ software and the fraction of supercoiled plasmid was determined as the ratio of the density of the supercoiled band to the total density. Values were background corrected against the no-gyrase control and normalized to DMSO control for dose-response analysis.
E. coli topoisomerase IV supercoiling relaxation assay (Inspiralis) was performed according to the manufacturer’s instructions, ensuring a constant concentration of 1% (v/v) DMSO.
Supercoiled pQE80L was prepared via plasmid purification and used as the substrate for the reaction. Reactions were analyzed as described for DNA gyrase assays. […]

[5] = Staphylococcus aureus, 18 h, read-out: EC50 S. aureus (USA300 JE2) Compound only, single agent, end-point OD600 after 18 h

T1 sequence (P0AFI2 whole entry): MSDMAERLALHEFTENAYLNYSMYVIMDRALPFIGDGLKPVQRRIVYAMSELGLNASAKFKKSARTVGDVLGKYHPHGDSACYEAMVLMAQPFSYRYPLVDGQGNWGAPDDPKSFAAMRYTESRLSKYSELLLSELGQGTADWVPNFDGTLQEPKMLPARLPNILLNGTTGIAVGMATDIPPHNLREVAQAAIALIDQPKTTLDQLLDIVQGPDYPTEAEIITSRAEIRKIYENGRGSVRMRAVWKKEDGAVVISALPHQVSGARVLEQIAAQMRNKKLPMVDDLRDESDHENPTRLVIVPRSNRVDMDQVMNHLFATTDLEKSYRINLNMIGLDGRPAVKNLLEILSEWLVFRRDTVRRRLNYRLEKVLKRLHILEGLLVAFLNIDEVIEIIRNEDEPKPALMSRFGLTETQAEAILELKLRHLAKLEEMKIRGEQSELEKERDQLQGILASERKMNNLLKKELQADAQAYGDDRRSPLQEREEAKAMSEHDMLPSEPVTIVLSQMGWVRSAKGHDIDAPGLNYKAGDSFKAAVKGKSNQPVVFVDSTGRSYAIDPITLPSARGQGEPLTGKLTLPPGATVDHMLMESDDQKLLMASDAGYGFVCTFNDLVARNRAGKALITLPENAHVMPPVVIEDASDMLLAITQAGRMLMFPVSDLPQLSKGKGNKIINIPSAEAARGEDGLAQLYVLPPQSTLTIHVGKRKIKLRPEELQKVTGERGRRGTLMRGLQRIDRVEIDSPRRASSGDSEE
T1 sequence (P20083 whole entry): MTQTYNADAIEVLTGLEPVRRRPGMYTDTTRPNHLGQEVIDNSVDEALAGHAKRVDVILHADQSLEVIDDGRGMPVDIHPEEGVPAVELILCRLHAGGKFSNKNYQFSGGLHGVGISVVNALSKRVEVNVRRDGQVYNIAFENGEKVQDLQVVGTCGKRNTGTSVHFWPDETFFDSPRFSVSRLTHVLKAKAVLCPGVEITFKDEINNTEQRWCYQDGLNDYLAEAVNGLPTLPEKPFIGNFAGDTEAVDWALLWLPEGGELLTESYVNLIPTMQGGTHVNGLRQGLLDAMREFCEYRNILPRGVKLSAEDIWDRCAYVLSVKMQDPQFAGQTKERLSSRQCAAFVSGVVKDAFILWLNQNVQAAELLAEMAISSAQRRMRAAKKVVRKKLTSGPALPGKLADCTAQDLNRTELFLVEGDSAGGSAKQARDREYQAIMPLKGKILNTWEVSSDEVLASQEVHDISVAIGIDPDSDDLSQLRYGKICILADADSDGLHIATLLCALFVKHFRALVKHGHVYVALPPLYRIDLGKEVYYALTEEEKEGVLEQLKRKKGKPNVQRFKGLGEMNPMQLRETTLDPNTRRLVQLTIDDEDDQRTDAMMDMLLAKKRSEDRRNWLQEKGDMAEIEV

SMILES	EC50 (S. aureus SH1000) [nM]	EC50 (MRSA (USA300 JE2) [1]) [nM]	EC50 (MRSA (USA300 JE2) [2]) [µM]	EC50 [3, 5] [µM]	EC50 (E. coli K-12 BW25113) [nM]	EC50 [4] [nM]	fold increase in potency of para- over meta-substituted analogue, potentiation by CFX [4] [fold]	fold less potent against JE2 compared to SH1000 [3] [fold]	fold higher potency than other CFX derivatives in E. coli (E. coli K-12 BW25113)	fold more potent against E. coli than SH1000 (E. coli K-12 BW25113) [fold]	Inhibition of topoisomerase IV (E. coli topoisomerase IV)	EC50 ([3]; Staphylococcus aureus, single agent, end-point OD600 after 18 h, read-out: EC50 S. aureus (USA300 JE2) Compound only) [µM]	Effect of the presence of CFX on potency ([4]; JE2, CFX 9.4 µM)	EC50 ([3]; single agent, end-point OD600 after 18 h, read-out: EC50 S. aureus (USA300 JE2) Compound only) [µM]
CCn1cc(C(=O)O)c(=O)c2cnc(N3CCN(C(=S)Nc4cccc(F)c4)CC3)nc21 [Compound 2]	6900 ± 400	21000 ± 2200	24 ± 3	27 ± 0.4	> 100000	730 ± 120								
CCn1cc(C(=O)O)c(=O)c2cnc(N3CCN(C(=S)Nc4cc(C(F)(F)F)cc(C(F)(F)F)c4)CC3)nc21 [Compound 3]	3600 ± 400	1500 ± 100	2.4 ± 0.2	2.7 ± 0.6	> 100000	620 ± 90								
CCn1cc(C(=O)O)c(=O)c2cnc(N3CCN(C(=S)Nc4ccc(C(F)(F)F)cc4)CC3)nc21 [Compound 4]	5200 ± 1100	2900 ± 200	4.7 ± 0.9	4 ± 0.3	> 100000	240 ± 30	~5							
CCn1cc(C(=O)O)c(=O)c2cnc(N3CCN(C(=S)Nc4cc(Cl)cc(Cl)c4)CC3)nc21 [Compound 6]	2300 ± 300	1500	2.5 ± 0.4	1.8 ± 0.1	> 100000	120 ± 40								
O=C(O)c1cn(C2CC2)c2cc(N3CCN(C(=S)Nc4cccc(C(F)(F)F)c4)CC3)c(F)cc2c1=O [Compound 7]	190 ± 60	2800 ± 400	5.5 ± 0.6	3.7 ± 0.5	410	140		> 20						
O=C(O)c1cn(C2CC2)c2cc(N3CCN(C(=S)Nc4cccc(F)c4)CC3)c(F)cc2c1=O [Compound 8]	80 ± 10	3400 ± 900	4.6 ± 0.4	4.8 ± 0.9	240 ± 30	220 ± 50		> 20	approximately 2 fold					
O=C(O)c1cn(C2CC2)c2cc(N3CCN(C(=S)Nc4cc(C(F)(F)F)cc(C(F)(F)F)c4)CC3)c(F)cc2c1=O [Compound 9]	1500 ± 300	1800 ± 300	2.6 ± 0.3	3.5 ± 0.4	390 ± 10	470 ± 70				~5				
O=C(O)c1cn(C2CC2)c2cc(N3CCN(C(=S)Nc4cccc(Cl)c4)CC3)c(F)cc2c1=O [Compound 11]	120 ± 40	2200 ± 600	3.2	2.8 ± 0.1	460 ± 100	84 ± 7		> 20						
O=C(O)c1cn(C2CC2)c2cc(N3CCN(C(=S)Nc4cc(Cl)cc(Cl)c4)CC3)c(F)cc2c1=O [Compound 12]	84 ± 7	800	2.9 ± 0.8	3.6 ± 0.4	420 ± 20	43 ± 11		> 20						
O=C(O)c1cn(C2CC2)c2cc(N3CCN(C(=S)Nc4cccc([N+](=O)[O-])c4)CC3)c(F)cc2c1=O [Compound 13]	110 ± 30			> 25	270 ± 20	430 ± 90								
O=C(O)c1cn(C2CC2)c2cc(N3CCN(C(=S)Nc4ccc([N+](=O)[O-])cc4)CC3)c(F)cc2c1=O [Compound 14]	50 ± 8			> 12.5	260 ± 40	49 ± 6	~10							
CCn1cc(C(=O)O)c(=O)c2cnc(N3CCN(C(=O)Nc4ccccc4)CC3)nc21 [Compound 15]	> 12500				> 12500	> 12500					not inhibited and not	> 12.5	unaffected	
CC1CN(c2cc3c(cc2F)c(=O)c(C(=O)O)cn3C2CC2)CCN1C(=S)Nc1ccc(C(F)(F)F)cc1 (stereo not drawn) [Compound 16]	260 ± 40			3.9 ± 0.4	300 ± 60	18 ± 3								
O=C(O)c1cn(C2CC2)c2cc(N3CCC(NC(=S)Nc4ccc(C(F)(F)F)cc4)C3)c(F)cc2c1=O (stereo not drawn) [Compound 17]	1600 ± 400			53 ± 13	2800 ± 400	3200 ± 300								
O=C(O)c1cn(C2CC2)c2cc(NCCNC(=S)Nc3ccc(C(F)(F)F)cc3)c(F)cc2c1=O [Compound 18]	7700 ± 1200			9.7 ± 1	> 100000	2500 ± 300								
CC(C)(C)OC(=O)NCCNC(=O)c1cn(C2CC2)c2cc(N3CCN(C(=S)Nc4ccc(C(F)(F)F)cc4)CC3)c(F)cc2c1=O [Compound 19]	> 100000			> 100	> 100000									
NCCNC(=O)c1cn(C2CC2)c2cc(N3CCN(C(=S)Nc4ccc(C(F)(F)F)cc4)CC3)c(F)cc2c1=O [Compound 20]	76000 ± 5000			78 ± 8	47000 ± 1000									
OO [Compound H2O2, hydrogen peroxide, reference compound]														147 ± 11
CO[C@@]12[C@H](COC(N)=O)C3=C(C(=O)C(C)=C(N)C3=O)N1C[C@@H]1N[C@@H]12 [MMC, Mitomycin-C, reference compound]				0.33 ± 0.01										
